Values joined by “and” are separate entries in the source; they are usually repeats but may differ in a detail not shown here. Equal entries are not always repeated.
Key:
MPO = test: Myeloperoxidase (MPO) activity in iris-ciliary body; assay type: in vivo, Rabbit; settings: for Mean MPO Unit/g (MPO activity in iris-ciliary body samples): group mean, after the second paracentesis; for MPO Unit/g (raw data of MPO activity in iris-ciliary body samples): individual eyes (DX/SX) of rabbits, samples collected after the second paracentesis
Experimental: 2.3.2.1 Phosphate Buffer (50 mM; pH=6)
3.9 g of NaH2PO4 2H2O were dissolved in a volumetric flask to 500 ml with water. The pH was adjusted to pH=6 with 3N NaOH.
0.5 g of hexa-decyl-trimethyl-ammonium bromide was dissolved in 100 ml phosphate buffer.
The solution was prepared freshly. Ten microliters of H2O2 (30 wt. %) were diluted to 1 ml with water (solution A). 7.5 mg o-dianisidine 2HCl were dissolved in 45 ml of phosphate buffer and 75 μl of solution A were added.
(§1) Each rabbit was placed in a restraint device and tagged with the alphanumeric code. The formulations were instilled (50 μl) into the conjunctival sac of both eyes 180, 120, 90 and 30 min before the first paracentesis; then 15, 30, 90 min after the first paracentesis. To perform the first paracentesis the animals were anaesthetized by intravenous injection of 5 mg/kg Zoletil® (Virbac; 2.5 mg/kg tiletamine HCl and 2.5 mg/kg zolazepam HCl) and one drop of local anesthetic (Novesina®, Novartis) was administered to the eye. Anterior chamber paracentesis was performed with a 26 G needle attached to a tuberculin syringe; the needle was introduced into the anterior chamber through the cornea, taking care not to damage the tissues. Two hours after the first paracentesis, the animals were sacrificed with 0.4 ml Tanax® (Intervet International B.V.) and the second paracentesis was performed. About 100 μl of aqueous humor were removed at the second paracentesis. Aqueous humor was immediately split in four aliquots and stored at −80° C. until analysis. Then both eyes were enucleated and the iris-ciliary body was carefully excised, placed in polypropylene tubes, and stored at −80° C. until analysis.
The activity of MPO was measured as previously described by Williams et al. The iris-ciliary bodies were carefully dried, weighed and immersed in 1 ml of hexa-decyl-trimethyl-ammonium bromide solution. Then, the samples were sonicated for 10 sec on ice by a ultrasound homogenizer (HD 2070, Bandelin electronic), freeze-thawed three times, sonicated for 10 sec and centrifuged at 14,000 g for 10 min to remove cellular debris. An aliquot of the supernatant (40-200 μl) was diluted to 3 ml with the o-dianisidine 2HCl/H2O2 solution. The change in absorbance at 460 nm was continuously monitored for 5 min by a spectrophotometer (UV/Vis Spectrometer Lambda EZ 201; Perkin Elmer). The slope of the line (Δ/min) was determined for each sample and used to calculate the number of units of MPO in the tissue as follows:
where ε=11.3 mM^−1. Values were expressed as units of MPO/g of tissue.

PGE2 = test: Prostaglandin E2 (PGE2) measurement in aqueous humor; assay type: in vivo, Rabbit; settings: for PGE2 in aqueous humor at the second paracentesis, Mean: group mean; for PGE2 in aqueous humor at the second paracentesis: individual eye sample
Experimental: as §1
For the quantitative determination of PGE2 in the aqueous humor we used the PGE2 Immunoassay kit (R&D Systems; Cat. No. KGE004; Lot. No. 240010). Eleven microliters or 16 μl of aqueous humor were diluted to 110 μl or 160 μl with the calibrator diluent solution provided with the kit. One hundred microliters of samples and of standards were load into a 96-well plate and recorded in a plate layout. Samples were treated following the assay procedure described in the kit. A microplate reader (GDV, Italy; model DV 990 B/V6) set at 450 nm (wavelength correction at 540 nm) was used for making the calibration and analyzing the samples.

leukocytes (PMN) = test: Leukocytes (PMN) measurement in aqueous humor; assay type: in vivo, Rabbit; settings: for PMN in aqueous humor at the second paracentesis, Mean: group mean; for PMN in aqueous humor at the second paracentesis: individual eye sample
Experimental: as §1
For the determination of the number of leukocytes we used a haemocytometer (Improved Neubauer Chamber; Brigth-line, Hausser Scientific) and a Polyvar 2 microscope (Reichert-Jung).

[1] = system: rabbit paracentesis model; test: Pupillary diameter measurement, rabbit paracentesis model; assay type: in vivo; settings: individual eye; for Pupillary diameter T2: −5 min: 5 min before first paracentesis; for Pupillary diameter T3: +115 min: 5 min before second paracentesis; for Pupillary diameter Δ(T3 − T1): +115 min minus −180 min; for Pupillary diameter T1: −180 min: basal
Experimental: as §1
The pupillary diameter of both eyes was measured with a Castroviejo caliper 180 min and 5 min before the first paracentesis and 5 min before the second paracentesis.

[2] = system: rabbit paracentesis model; test: Clinical evaluation by slit lamp (clinical score), rabbit paracentesis model; assay type: in vivo; design: key to Clinical Score −180 min / Clinical Score −5 min / Clinical Score +115 min: 0: normal; 1: discrete dilatation of iris and conjunctival vessels; 2: moderate dilatation of iris and conjunctival vessels; 3: intense iridal hyperemia with flare in the anterior chamber; 4: intense iridal hyperemia with flare in the anterior chamber and presence of fibrinous exudates; settings: for Clinical Score −5 min: 5 min before first paracentesis; for Clinical Score −5 min / Clinical Score +115 min / Clinical Score −180 min: individual eye, scale 0-4; for Clinical Score +115 min: 5 min before second paracentesis; for Clinical Score −180 min: basal
[3] = system: protein concentration in the aqueous humor; test: Protein measurement in aqueous humor; assay type: in vivo, Rabbit; settings: for Protein in aqueous humor at the second paracentesis, Mean: group mean; for Protein in aqueous humor at the second paracentesis: individual eye sample
Experimental: as §1
For protein concentration determination in the aqueous humor we used the Protein Quantification Kit (Fluka; Cat. No. 77371; Lot. No. 1303129). Five microliters of aqueous humor were diluted to 100 μl with water. Twenty microliters of samples and of standards were load into a 96-well plate and recorded in a plate layout. Samples were treated following the assay procedure described in the kit. A microplate reader (GDV, Italy; model DV 990 B/V6) set at 670 nm was used for making the calibration and analyzing the samples.

C[C@@H]1C[C@H]2[C@@H]3CCC4=CC(=O)C=C[C@]4(C)[C@@]3(F)[C@@H](O)C[C@]2(C)[C@@]1(O)C(=O)CO [Dex, Dexamethasone, reference compound]
Mean MPO Unit/g (MPO activity in iris-ciliary body samples) (MPO; 0.1% treatment): 0.618 Unit/g
MPO Unit/g (raw data of MPO activity in iris-ciliary body samples) (MPO; 0.1% treatment): 0.71 Unit/g and 0.60 Unit/g and 1.32 Unit/g and 0.48 Unit/g (2×) and 0.39 Unit/g and 0.45 Unit/g and 0.51 Unit/g
PGE2 in aqueous humor at the second paracentesis, Mean (PGE2; 0.1% topical): 2.263 ng/mL
PGE2 in aqueous humor at the second paracentesis (PGE2; 0.1% topical): 2.51 ng/ml and 2.32 ng/ml (2×) and 2.10 ng/ml and 3.03 ng/ml and 1.30 ng/ml
PMN in aqueous humor at the second paracentesis, Mean (leukocytes (PMN); 0.1% topical): 30.000 number/μl
PMN in aqueous humor at the second paracentesis (leukocytes (PMN); 0.1% topical): 20 number/μl (3×) and 50 number/μl and 40 number/μl and 30 number/μl
Pupillary diameter T2: −5 min ([1]; 0.1% topical): 5.5 mm and 6.5 mm (3×) and 6.0 mm (2×) and 7.0 mm and 7.5 mm
Pupillary diameter T3: +115 min ([1]; 0.1% topical): 5.5 mm (3×) and 6.0 mm (2×) and 4.5 mm and 5.0 mm and 6.5 mm
Pupillary diameter Δ(T3 − T1) ([1]; 0.1% topical): −0.5 mm (3×) and −1.5 mm (2×) and 0.5 mm and 0.0 mm and −2.0 mm
Pupillary diameter T1: −180 min ([1]; 0.1% topical): 6.0 mm and 7.0 mm (2×) and 5.5 mm (2×) and 6.5 mm (3×)
Clinical Score −5 min ([2]; 0.1% topical): 0 (6×) and 1 (2×)
Clinical Score +115 min ([2]; 0.1% topical): 1 (6×) and 3 (2×)
Percentage of eyes with clinical score 1 ([2]; 0.1% topical, +115 min, 8 eyes): 75%
Percentage of eyes with clinical score 3 ([2]; 0.1% topical, +115 min, 8 eyes): 25%
Clinical Score −180 min ([2]; 0.1% topical): 0
Percentage of eyes with clinical score 0 ([2]; 0.1% topical, −5 min, 8 eyes): 75%
Percentage of eyes with clinical score 1 ([2]; 0.1% topical, −5 min, 8 eyes): 25%
Percentage of eyes with clinical score 0 ([2]; 0.1% topical, −180 min, 8 eyes): 100%
Protein in aqueous humor at the second paracentesis, Mean ([3]; 0.1% topical): 33.457 mg/mL
Protein in aqueous humor at the second paracentesis ([3]; 0.1% topical): 31.31 mg/mL and 31.81 mg/mL and 35.95 mg/mL and 37.15 mg/mL and 32.12 mg/mL and 32.40 mg/mL

CC(C(=O)O)c1ccc(-c2ccccc2)c(F)c1 (centres unmarked) [F, flurbiprofen, reference compound]
MPO activity in iris-ciliary body, statistical comparison with CTR (MPO; 0.03% topical, p<0.01): statistical significance
Mean MPO Unit/g (MPO activity in iris-ciliary body samples) (MPO; 0.03% treatment): 0.906 Unit/g
MPO Unit/g (raw data of MPO activity in iris-ciliary body samples) (MPO; 0.03% treatment): 1.10 Unit/g and 1.70 Unit/g and 0.34 Unit/g and 0.75 Unit/g and 0.74 Unit/g and 0.63 Unit/g and 0.73 Unit/g and 1.27 Unit/g
PGE2 in aqueous humor at the second paracentesis, Mean (PGE2; 0.03% topical): 1.189 ng/mL
PGE2 in aqueous humor at the second paracentesis (PGE2; 0.03% topical): 1.04 ng/ml and 0.75 ng/ml and 0.85 ng/ml and 1.11 ng/ml and 2.11 ng/ml (2×) and 0.93 ng/ml and 0.61 ng/ml
PGE2 in aqueous humor, statistical comparison with CTR (PGE2; 0.03% topical, p<0.05): statistically significant versus CTR
PMN in aqueous humor at the second paracentesis, Mean (leukocytes (PMN); 0.03% topical): 30.000 number/μl
PMN in aqueous humor at the second paracentesis (leukocytes (PMN); 0.03% topical): 50 number/μl and 40 number/μl (2×) and 20 number/μl (2×) and 10 number/μl and 30 number/μl
Pupillary diameter T2: −5 min ([1]; 0.03% topical): 6.0 mm (3×) and 6.5 mm (3×) and 7.0 mm and 5.5 mm
Pupillary diameter T3: +115 min ([1]; 0.03% topical): 4.0 mm and 3.5 mm and 5.5 mm (2×) and 5.0 mm (2×) and 4.5 mm and 6.0 mm
Pupillary diameter Δ(T3 − T1) ([1]; 0.03% topical): −1.0 mm (3×) and −1.5 mm (3×) and 0.0 mm (2×)
Pupillary diameter T1: −180 min ([1]; 0.03% topical): 5.0 mm (2×) and 7.0 mm and 6.0 mm (4×) and 5.5 mm
Clinical Score −5 min ([2]; 0.03% topical): 0
Clinical Score +115 min ([2]; 0.03% topical): 2
Percentage of eyes with clinical score 2 ([2]; 0.03% topical, +115 min, 8 eyes): 100%
Clinical Score −180 min ([2]; 0.03% topical): 0
Percentage of eyes with clinical score 0 ([2]; 0.03% topical, −5 min, 8 eyes): 100%
Percentage of eyes with clinical score 0 ([2]; 0.03% topical, −180 min, 8 eyes): 100%
Protein in aqueous humor at the second paracentesis, Mean ([3]; 0.03% topical): 20.910 mg/mL
Protein in aqueous humor at the second paracentesis ([3]; 0.03% topical): 20.78 mg/mL and 28.80 mg/mL and 23.41 mg/mL and 20.21 mg/mL and 17.53 mg/mL and 15.12 mg/mL and 20.52 mg/mL
Protein in aqueous humor, statistical comparison with CTR ([3]; 0.03% topical, p<0.001): statistical significance
